Measurements as given in patent publication US5756107A, “Formulations and methods for reducing skin irritation” (Cosmederm Technologies, priority 1994, dated 1998).
“Also recorded” adds a separate entry of the source. Where a name gives a salt, the structure may show the parent alone.

Experiments:
[1] = system: subject's skin (skin irritation caused by lactic acid); assay: Lactic acid skin irritation challenge, double-blind randomized vehicle-controlled clinical trial (cumulative sensory irritation); assay type: in vivo, human; details: for Percent Inhibition (average inhibition of cumulative irritation): cation salts at 250 mM, average over clinical tests of over 550 subjects, 7.5% lactic acid challenge; for Percent Inhibition: representative subject panels, cation concentrations of 250 mM, vehicle 10% EtOH; for anti-irritant activity (in words): clinical trials, topical
Method: The trials were conducted in a double blind, randomized, vehicle-controlled manner. Various formulations of the invention were tested in over 550 people.
Controls were performed by applying a corresponding formulation without any added cation to a contralateral portion of the subject's skin.
The following scaled scores were used for sensory assessment:
Cumulative irritation data are set forth in the following tables, and are depicted in FIGS. 9 and 10.

[2] = cited from earlier work
skin irritation = assay: Inhibition of skin irritation by salts in Elizabeth Arden Visible Difference Refining Toner; assay type: in vivo; details: topical solution in Elizabeth Arden Visible Difference Refining Toner, various amounts
Method: Cation salts of the invention were formulated at various concentrations in various commercially available topical cosmetic products.
Topical solution forms of potassium nitrate, potassium chloride, potassium citrate, lithium sulfate, lithium nitrate and lithium acetate were prepared by combining various amounts of the named salts with Elizabeth Arden Visible Difference Refining Toner (an alcohol-containing solution).

exposed tooth nerves = details: cited from earlier work
exposed tooth pulp = exposed tooth pulp vs dentin; cited from earlier work
tooth sensitivity = details: dentifrice, two to six weeks of continuous use; cited from earlier work
brains of test animals = details: applied directly to the brains of test animals; cited from earlier work
[3] = in vivo, po; cited from earlier work
sodium channels = details: cell membranes; cited from earlier work

Row | Compound | Percent Inhibition (average inhibition of cumulative irritation) [1] [%] | Percent Inhibition [1] [%] | inhibition of skin irritation (in words) (skin irritation) | anti-irritant activity (in words) [1] | also measured
1 | O=S(=O)([O-])[O-].[K+].[K+] [Potassium sulfate] | 15 | 27 |  |  | 
2 | O=S(=O)([O-])[O-].[Mg+2] [magnesium sulfate] |  |  |  |  | anesthesia or analgesia ([2]; intravenous): produces neither anesthesia nor even analgesia in humans
3 | [Cl-].[Li+] [Lithium chloride] | 0 | 6 |  |  | 
4 | O=C([O-])CC(O)(CC(=O)[O-])C(=O)[O-].[K+].[K+].[K+] [potassium citrate] |  |  | effective to inhibit skin irritation |  | 
5 | [K+] [potassium (K^+), potassium] |  |  |  | effective, when applied topically to the skin in appropriate concentrations and vehicles, to suppress the relatively severe stinging, burning, tingling, itching and/or erythema | nerve electrical responses (exposed tooth nerves): evokes a transient electrical response followed by inhibition of excitability; pain on application to tooth pulp or dentin (exposed tooth pulp): pain is induced when potassium ion is applied to exposed tooth pulp but not when applied to the dentin
6 | [Cl-].[K+] [Potassium chloride] | 40 | 38 | effective to inhibit skin irritation | overall efficacy of the subject formulations is evident; also recorded: particularly active as anti-irritants | 
7 | [Ca+2] [calcium] |  |  |  |  | nerve electrical responses (exposed tooth nerves): may suppress nerve electrical responses
8 | O=[N+]([O-])[O-].[Li+] [Lithium nitrate] | 20 | 16 | effective to inhibit skin irritation | particularly active as anti-irritants | 
9 | O=C([O-])[C@H](O)[C@@H](O)[C@H](O)[C@H](O)CO.[K+] [Potassium gluconate] | 25 | 25 |  | particularly active as anti-irritants | 
10 | O=C(O)C(=O)O [Potassium oxalate, potassium oxalate] |  | 30 |  | particularly active as anti-irritants | 
11 | O=[N+]([O-])[O-].[K+] [Potassium nitrate] | 30 | 29 | effective to inhibit skin irritation | particularly active as anti-irritants | tooth sensitivity (tooth sensitivity): reduce tooth sensitivity; Percent Inhibition (cumulative irritation, dose-response) ([1]; 31 mM): -3%; Percent Inhibition (cumulative irritation, dose-response) ([1]; 125 mM): 18%; Percent Inhibition (cumulative irritation, dose-response) ([1]; 250 mM): 29%; Percent Inhibition (cumulative irritation, dose-response) ([1]; 500 mM): 60%
12 | [Cl-].[Cl-].[Sr+2] [strontium chloride, reference compound] |  |  |  |  | tooth sensitivity (tooth sensitivity): reduce tooth sensitivity
13 | O=S(=O)([O-])[O-].[Li+].[Li+] [Lithium sulfate] | 35 | 39 | effective to inhibit skin irritation | overall efficacy of the subject formulations is evident; also recorded: particularly active as anti-irritants | Percent Inhibition (cumulative irritation, dose-response) ([1]; 31 mM): 2%; Percent Inhibition (cumulative irritation, dose-response) ([1]; 62 mM): -7%; Percent Inhibition (cumulative irritation, dose-response) ([1]; 125 mM): 16%; Percent Inhibition (cumulative irritation, dose-response) ([1]; 250 mM): 27%; Percent Inhibition (cumulative irritation, dose-response) ([1]; 500 mM): 30%
14 | CC(=O)O [Lithium acetate] | 70 | 67 | effective to inhibit skin irritation | particularly active as anti-irritants | 
15 | [Mg+2] [magnesium] |  |  |  |  | paralysis of skeletal muscles ([2]; magnesium ion, intravenously-administered magnesium sulfate): induces paralysis of skeletal muscles; nerve electrical responses (exposed tooth nerves): may suppress nerve electrical responses; neural or synaptic activity (brains of test animals): depressed neural or synaptic activity, and even a sleep-like state; paralysis or depressed neural activity [3]: does not result in paralysis or depressed neural activity in healthy individuals
16 | [Li+] [lithium (Li^+), lithium] |  |  |  | effective, when applied topically to the skin in appropriate concentrations and vehicles, to suppress the relatively severe stinging, burning, tingling, itching and/or erythema | block of sodium channels (sodium channels): block sodium channels on cell membranes; anti-irritant efficacy, effect of glycerol in the vehicle ([1]; preliminary studies, low concentration, vehicle includes glycerol): increased if the vehicle includes glycerol
17 | O=C(O)O [Lithium carbonate, lithium carbonate] |  | 69 |  | particularly active as anti-irritants | 
